Each compound was assayed against Hepatocyte growth factor receptor (Homo sapiens, UniProt P08581).
Hepatocyte growth factor receptor, sequence (P08581 whole entry): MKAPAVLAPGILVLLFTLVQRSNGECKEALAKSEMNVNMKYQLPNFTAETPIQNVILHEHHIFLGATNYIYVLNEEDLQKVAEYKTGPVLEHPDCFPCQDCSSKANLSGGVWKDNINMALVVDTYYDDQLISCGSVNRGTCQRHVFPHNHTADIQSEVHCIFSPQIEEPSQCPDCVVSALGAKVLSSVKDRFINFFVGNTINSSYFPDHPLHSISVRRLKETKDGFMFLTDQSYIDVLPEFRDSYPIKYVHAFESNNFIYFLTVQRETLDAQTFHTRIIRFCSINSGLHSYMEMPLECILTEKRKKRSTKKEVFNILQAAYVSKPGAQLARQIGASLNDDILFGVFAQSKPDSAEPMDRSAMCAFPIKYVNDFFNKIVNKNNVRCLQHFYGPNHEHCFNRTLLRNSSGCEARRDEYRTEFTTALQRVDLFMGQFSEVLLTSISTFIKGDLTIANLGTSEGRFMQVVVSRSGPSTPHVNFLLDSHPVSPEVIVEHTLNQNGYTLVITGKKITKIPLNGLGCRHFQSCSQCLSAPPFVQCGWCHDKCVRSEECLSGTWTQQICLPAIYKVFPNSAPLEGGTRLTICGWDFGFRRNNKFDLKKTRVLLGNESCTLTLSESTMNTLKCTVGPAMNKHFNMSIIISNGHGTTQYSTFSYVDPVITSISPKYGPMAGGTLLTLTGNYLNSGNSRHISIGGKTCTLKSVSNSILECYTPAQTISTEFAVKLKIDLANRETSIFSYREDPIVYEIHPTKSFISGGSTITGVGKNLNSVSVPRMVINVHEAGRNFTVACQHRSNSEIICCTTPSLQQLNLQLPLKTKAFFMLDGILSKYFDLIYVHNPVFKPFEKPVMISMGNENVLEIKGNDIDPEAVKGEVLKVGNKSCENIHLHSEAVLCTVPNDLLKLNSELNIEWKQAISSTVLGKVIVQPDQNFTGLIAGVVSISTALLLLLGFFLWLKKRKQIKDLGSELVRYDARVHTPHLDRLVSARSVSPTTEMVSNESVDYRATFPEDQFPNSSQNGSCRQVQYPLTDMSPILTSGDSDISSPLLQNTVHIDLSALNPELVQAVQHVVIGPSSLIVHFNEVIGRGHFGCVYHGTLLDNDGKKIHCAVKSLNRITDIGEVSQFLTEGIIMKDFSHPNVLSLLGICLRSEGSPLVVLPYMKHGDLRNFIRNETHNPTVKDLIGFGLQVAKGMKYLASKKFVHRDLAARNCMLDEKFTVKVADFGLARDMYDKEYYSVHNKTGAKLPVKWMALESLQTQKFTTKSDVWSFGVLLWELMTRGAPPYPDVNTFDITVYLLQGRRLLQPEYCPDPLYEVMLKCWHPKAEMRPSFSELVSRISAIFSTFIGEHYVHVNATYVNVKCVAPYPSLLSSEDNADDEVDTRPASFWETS
Description: Inhibition of human c-MET

**Q.** How did the IC50 turn out when CN1CCN(c2cnc3cccc(OCc4cccc([N+](=O)[O-])c4)c3c2)CC1 was run?
**A.** 57 nM

**Q.** With CN(CCN1CCN(N)CC1)Cc1ccc(-c2cc3nccc(Oc4ccc(NC(=O)N5CCN(c6ccccc6)C5=O)cc4F)c3s2)cc1 as the compound, how does the IC50 read?
**A.** 28 nM

**Q.** For Cc1[nH]c(/C=C2\C(=O)Nc3ccc(S(=O)(=O)N(C)c4cccc(Cl)c4)cc32)c(C)c1CCCN1CCOCC1, which IC50 is on record?
**A.** 170 nM

**Q.** With CCn1ccnc1-c1cc2cccc(Oc3ccc(NC(=S)NC(=O)Cc4ccccc4)cc3F)c2s1 as the compound, how does the IC50 read?
**A.** 108 nM

**Q.** With O=C(Cc1ccccc1)NC(=S)Nc1ccc(Oc2cccc3cc(-c4ncccn4)sc23)c(F)c1 as the compound, how does the IC50 read?
**A.** 181 nM

**Q.** Which IC50 does the source give for CC(C)(C)OC(=O)c1cnc2ccn(S(=O)(=O)c3ccccc3[N+](=O)[O-])c2c1 here?
**A.** 20 nM

**Q.** How did the IC50 turn out when O=C(Cc1ccc2c(c1)CCO2)NN=C1C(=O)Nc2cc(C(=O)NCN3CCOCC3)cc(Br)c21 was run?
**A.** 0.7 nM

**Q.** How did the IC50 turn out when Cn1cc(CC(=O)N/N=C2\C(=O)Nc3ccc(C(=O)N4CCCC4CN4CCCC4)c(Cl)c32)ccc1=O (stereo unspecified) was run?
**A.** 4150 nM

**Q.** With CC(C(=O)NN=C1C(=O)Nc2ccc(C(=O)N3CCCC3CN3CCCC3)c(Cl)c21)c1ccc(F)cc1 (stereo unspecified) as the compound, how does the IC50 read?
**A.** 430 nM

**Q.** CN(C)CCNC(=O)c1cc(Br)c2c(c1)NC(=O)/C2=N\NC(=O)Cc1ccc2c(c1)CCO2 was tested. Which IC50 did it give?
**A.** 100 nM

**Q.** With COc1cc2nccc(Oc3ccc(NC(=O)NCCc4c(Cl)cccc4Cl)nc3)c2cc1OC as the compound, how does the IC50 read?
**A.** 5200 nM

**Q.** For COc1cc2nccc(Oc3ccc(NC(=O)NCC(=O)N(C)C)nc3)c2cc1OC, which IC50 is on record?
**A.** 9640 nM

**Q.** O=C(Nc1ccc(Oc2ccnc3ccsc23)c(F)c1)NC1CC1c1ccccc1 (stereo unspecified) was tested. Which IC50 did it give?
**A.** 6600 nM

**Q.** With O=C(Nc1ccc(Oc2ccnc3ccsc23)cc1)NC1CC1c1ccccc1 (stereo unspecified) as the compound, how does the IC50 read?
**A.** 10000 nM

**Q.** How did the IC50 turn out when Cn1ccnc1-c1cc2nccc(Oc3ccc(NC(=O)NC(=O)c4c(F)cccc4F)nc3)c2s1 was run?
**A.** 4400 nM

**Q.** How did the IC50 turn out when O=C(Cc1ccccc1)NC(=O)Nc1ccc(Oc2ccnc3ccsc23)cc1F was run?
**A.** 300 nM

**Q.** How did the IC50 turn out when Cc1[nH]c(/C=C2\C(=O)Nc3ccc(S(=O)(=O)N4CCc5ccccc54)cc32)c(C)c1C(=O)N1CCN(C)CC1 was run?
**A.** 40 nM

**Q.** O=C(Cc1ccc2c(c1)CCO2)N/N=C1\C(=O)Nc2cc(C(=O)NCCCO)cc(Br)c21 was tested. Which IC50 did it give?
**A.** 65 nM

**Q.** O=C(Cc1ccccc1)NC(=S)Nc1ccc(Oc2ccnc3cc(C(=O)C4CCCO4)sc23)c(F)c1 (stereo unspecified) was tested. Which IC50 did it give?
**A.** 130 nM

**Q.** Which IC50 does the source give for Cn1cnc(-c2cc3cccc(Oc4ccc(NC(=S)NC(=O)Cc5ccccc5)cc4F)c3s2)c1 here?
**A.** 29 nM

**Q.** Cc1cc(CCN2CCCC2)c(C)c2c1N(CCN1CCCCC1)C(=O)/C2=N\NC(=O)C(C)c1ccc(O)cc1 (stereo unspecified) was tested. Which IC50 did it give?
**A.** 200 nM

**Q.** Which IC50 does the source give for Cc1cccc2c1NC(=O)/C2=N\NC(=O)Cc1ccc(O)c(Cl)c1 here?
**A.** 20 nM

**Q.** For COc1cc2ncnc(Oc3ccc(NC(=O)NC(=O)c4c(F)cccc4F)nc3)c2cc1OC, which IC50 is on record?
**A.** 430 nM

**Q.** With COc1cc2c(Oc3ccc(-c4cnc(Cc5ccc(F)cc5)n(C)c4=O)cc3F)ccnc2cc1OCCCN1CCOCC1 as the compound, how does the IC50 read?
**A.** 17 nM

**Q.** Which IC50 does the source give for COc1ccc2c(Oc3ccc(NC(=O)c4c(C)n(CC(C)(C)O)n(-c5ccccc5)c4=O)cc3F)ccnc2c1 here?
**A.** 2.7 nM

**Q.** COc1cc2c(Oc3ccc(-c4cnc(Cc5ccccc5)n(C)c4=O)cc3F)ccnc2cc1OCCCN1CCN(C)CC1 was tested. Which IC50 did it give?
**A.** 9.2 nM

**Q.** With CCN1CCN(CCCOc2cc3nccc(Oc4ccc(-c5cnc(Cc6ccccc6)n(C)c5=O)cc4F)c3cc2OC)CC1 as the compound, how does the IC50 read?
**A.** 21 nM

**Q.** Which IC50 does the source give for COc1cc2c(Oc3ccc(-c4cnc(Nc5ccc(F)cc5)n(C)c4=O)cc3F)ccnc2cc1OCCCN1CCOCC1 here?
**A.** 4.9 nM

**Q.** Which IC50 does the source give for COc1cc2nccc(Oc3ccc(-c4cnc(C(N)c5ccccc5)n(C)c4=O)cc3F)c2cc1OC (stereo unspecified) here?
**A.** 72 nM

**Q.** For COc1cc2nccc(Oc3ccc(-c4cnc(Nc5cccc(F)c5)n(C)c4=O)cc3F)c2cc1OC, which IC50 is on record?
**A.** 38 nM

**Q.** For COc1cc2c(Oc3ccc(-c4cnc(Cc5ccccc5)n(C)c4=O)cc3F)ccnc2cc1OCCCN1CCOCC1, which IC50 is on record?
**A.** 17 nM
